Tests used:
KP mice carrying LUADs [1] = test: KP mice treated with empagliflozin for 6 weeks: lung histology (H&E) and IHC; assay type: in vivo, mouse
Description: (§1) Lung tumors were induced by intranasal administration of Adeno-Cre (purchased from University of Iowa Viral Vector Core) as previously described (Scafoglio et al., 2018), or by transthoracic injection of Adeno-Cre in KPluc mice. All treatment trials were performed 2 weeks after tumor induction, and the results of biological duplicates were pooled for statistical analysis. In all trials, mice were assigned to therapeutic groups so that there were no significant differences in baseline tumor burden, age, sex, or weight among the different groups.
In the trial for assessment of tumor differentiation by immunohistochemistry (FIG. 1A-E, 6L-M, and EV1A-C) lung tumors were induced by intranasal administration of Adeno-Cre. After tumor induction, mice (n=11 for placebo and 13 for empagliflozin group) were treated with either placebo (DMSO 5%, PEG 30%, Tween80 10%) or empagliflozin (10 mg/Kg/d by oral gavage) for 6 weeks and then sacrificed for lung collection and fixation in formalin.
For the GEMMs, the mouse lungs were collected and inflated with 10% formalin in phosphate-buffered saline. After 24 hours, formalin was replaced to 70% ethanol. All tissues were paraffin-embedded and sliced into […] sections in the Translational Pathology Core Laboratory (TPCL) at UCLA.
For IHC staining, the slides were deparaffinized by overnight incubation at 65° C., followed by rehydration by serial passages in xylenes (three washes of 5 min in 100% xylenes) and decreasing concentrations of ethanol (two washes in 100% ethanol, two washes in 95%, one wash in 80%, one wash in 70%, and one wash in water). Antigen retrieval was performed for 23 min in AR6 (pH 6.0) buffer.
Blocking was performed with 5% goat serum for 1 hour at room temperature, followed by incubation with primary antibodies overnight at 4° C. Incubation with biotin-labeled secondary antibody was performed at room temperature for 1 hour, followed by incubation with avidin-biotin peroxidase complex and ImmPACT 3,3′-diaminobenzidine (DAB). Counterstain was performed with Harris' haematoxylin diluted 1:5 in water, followed by […] step and mounting slide. After the staining, digital images of the slides were obtained with an Aperio ScanScope slide scanner (Leica Biosystems). The quantification was performed using the QPath software. Briefly, regions of interests were drawn blindly in each slide to include each tumor present in a whole-lung section, followed by cell detection and quantification of the DAB signal using a constant threshold for all samples in the same experiment. Staining intensity in each cell was classified as negative (0), weak (1), median (2), or strong (3). The results were expressed as H score.
QuPath (Bankhead et al, 2017) was used for signal quantification in IHC staining. It was expressed as H score. Kaplan-Meier curves were performed with Kaplan-Meir Plotter tool (Gyorffy, 2021), using the lung cancer section. For the selected genes only, the best probe was used. All dataset available were used as cohort. For Kaplan-Meier plot performed using multiple genes, the option “use mean expression of selected genes” was set.

KP mice carrying LUADs [2] = test: KP mice treated with empagliflozin for 4 weeks: RT-PCR on lung tumors; assay type: in vivo, mouse; details: vs placebo
Description: as §1
In the trial for assessment of tumor differentiation by RT-PCR (FIGS. 1F and 6C) mice (n=3) received intranasal AdenoCre and treatment with either placebo (0.5% hypromellose-methyl cellulose) or empagliflozin (10 mg/Kg/d by oral gavage) for 4 weeks, followed by tumor collection and RNA extraction. RT-PCR was performed in technical triplicates, yielding a total of 9 experimental points per group.
(§2) Total RNA was extracted from A549, NCI-H358 and 2953A by using TRI Reagent Solution (Applied Biosystem), according to manufacturer instruction. RNA concertation was assayed by Nanodrop 3000 spectrophotometer (Thermo Fisher Scientific). Then, 1 μg of RNA was treated with DNase I (Thermo Fisher Scientific) and used for cDNA preparation.
(§3) cDNA was prepared using 1 μg of RNA with SuperScript IV Reverse Transcriptase (Invitrogen). SYBR green-based RT-PCR kit (Biorad) was performed using human and mouse primers (See Table EV11). mRNA levels were normalized to GAPDH (ΔCt=Ctgene of interest-Ct GAPDH) and presented as relative mRNA expression (ΔΔCt=2-(ΔCtsample-ΔCtcontrol)). All primers were designed by NCBI Primer-BLAST and purchased from Integrated DNA Technologies.

KP mice carrying LUADs [3] = test: KP mice treated with empagliflozin, ex vivo BLI, then tail vein re-injection of sorted tumor cells in syngeneic mice; parameters: species or system mouse
Description: For our studies on the investigation of cell aggressiveness due to the glucose deprivation, we used syngeneic FVB mice. Two experiments were performed, in biological duplicate.
In the second experiment (FIG. 2G-J), KP mice injected transthoracically with AdenoCre were treated for 3 weeks with either placebo (n=3) or empagliflozin (n=3), and sacrificed for lung collection. Tumors were identified in the murine lungs by ex vivo bioluminescence and dissociated. Tumor single cells were resuspended in cold PBS followed by magnetic beads sorting (Miltenyi Biotec) to isolate the Epcam-positive epithelial cells. Finally, sorted tumor cells were injected by tail vein inoculation (1,000,000 cells/mouse) into syngeneic mice (n=6 per group). Tumor burden was measured by bioluminescence until 13 weeks after inoculation.

KP mice carrying LUADs [4] = test: ELISA for H3K27me3 in KP tumors after empagliflozin; assay type: in vivo, mouse; details: transthoracic AdenoCre, empagliflozin for 1 week, vs placebo
Description: For the measurement of in vivo HeK27 trimethylation (FIG. 3B), mice (n=4 per group) received transthoracic adenoCre and were treated for 3 weeks with either placebo (0.5% hypromellose-methyl cellulose) or empagliflozin (10 mg/Kg/d by oral gavage) followed by lung collection and histone extraction for ELISA assay.
The levels of trimethylation on H3K27me3 in tumors treated with empaglifozin were detected by ELISA kits (Active Motif) according to the manufacturer's instructions. The experiment was carried out with 4 replicates for each group. After tumor collecting, histone extraction was performed.
We used H3K27me3 and H3 total antibodies for plate coating. The absorbance was detected by Varioskan Lux (Thermo Fisher Scientific). The H3K27me3 levels were normalized to H3 total and presented as optical densitometry (O. D.) 450 nm of a ratio of H3K27me3/H3.

KP mice carrying LUADs [5] = test: Combination treatment trial in KP mice, tumor burden by bioluminescence imaging; assay type: in vivo, mouse; details: 6 weeks from week 2, empagliflozin 10 mg/kg/d, tazemetostat 125 mg/kg/bid, oral gavage
Description: as §1
In the combination treatment trial (FIG. 3F-G), mice received the first BLI measurement two weeks post-AdenoCre administration for measurement of the baseline tumor burden. Four therapeutic groups were established as follows: (i) Placebo (n=11), receiving oral gavage of vehicle (DMSO 5%, PEG 30%, Tween80 10%); (ii) SGLT2 inhibitor Empaglifozin (10 mg/Kg/d, n=13); (iii) EZH2 inhibitor Tazemetostat (125 mg/Kg/bid, n=10); (iiii) Empaglifozin and Tazemetosat (n=19). Each group received bi-daily administration by oral gavage.

A549 cells = test: αKG rescue in low glucose, western blot and RT-PCR; assay type: cell-based, human; details: A549, 2 hours in low glucose, αKG
Description: (§4) Human lung cancer A549 (CCL-185) and NCI-H358 (CRL-5807) cells lines were purchased from American Type Culture Collection (ATCC, Manassas, VA). Cells were maintained in culture according to manufacturer protocol using Roswell Park Memorial Institute (RPMI) 1640 medium (Corning, Cat. #10-040CV) supplemented with 10% FBS and 5% 1× Pen-Strep and kept in 37° C. and 5% of CO2. Murine 2953A cell line was established in our lab from a KP lung tumor by tissue dissociation. This cell line was maintained in culture in Dulbecco's modified Eagle Medium (DMEM) medium (Corning, Cat. #10-017CV) with 5% FBS and 5% 1× Pen-Strep.
(§5) All experiments in cell lines were performed in biological triplicate. Cells were seeded at same confluence and grown for 5 days (and for some experiments overnight or up to 9 days or 30 days, as indicated in the figures and text) in different concentration of glucose: high (20 mM), low (1 mM) and for some experiments medium (5 mM), as indicated. We used mediums with glutamine and without glucose: RPMI (Corning Cat. #10-043CV) for A549 and NCI-H358 cells, DMEM (ThermoScientific Cat. #11566025) for 2953A cells, supplemented with 10% FBS, 5% of 1× Pen-Strep and complemented with D-Glucose to the desired final concentration, as indicated in the figures.
(§6) All αKG rescue experiments were conducted using 10 mM alpha-ketoglutarate (α-KG; Sigma) and α-Mannitol (Sigma) as osmotic control.
(§7) For total protein extraction, cells were harvested, washed twice with ice-cold PBS-EDTA (0.5 mm EDTA), lysed using RIPA buffer (50 mM Tris-HCl pH 7.6, 150 mM NaCl, 0.1% SDS, 0.5% C24H39NaO4, 1% NP-40, 2 mm EDTA, 50 mm NaF) for 15 min on ice and centrifuged at 13,000 rpm for 30 min at +4° C. The resulting protein extracts were quantified using BCA protein assay followed by analysis by SDS-PAGE and Western blotting.
(§8) Histones was extracted from A549, NCI-H358 and 2953A cell lines using the Histone extraction kit (Abcam) according to manufacturer instructions.
(§9) SDS-PAGE and Western blotting analyses were performed using standard protocols. For antibodies information, see Reagents and Tools Table. Western blot images were detected by iBright Imaging Systems (Thermo Fisher Scientific). The protein detected was normalized to Actin or H3 total antibodies, this last in case of histonic extract. Each immunodetection derived from the same membrane was performed with the same exposure times according to the manufacture's antibody guidelines and was cropped only for presentation purposes; this is indicated by a dotted line.
as §2, §3

NCI-H358 cells = test: αKG rescue in low glucose, western blot and RT-PCR; assay type: cell-based, human; details: NCI-H358, 2 hours in low glucose, αKG
Description: as §4, §5, §6, §7, §8, §9, §2, §3

[6] = test system: long non-coding RNA HIFAL; test: Expression of HIFAL in low glucose with αKG; assay type: cell-based; details: cell line not stated (Fig. EV5F-G)
Description: as §6, §3

MCF7 = test: αKG rescue of FoxA2 in low glucose, western blot; assay type: cell-based, human; details: MCF7 breast cancer cells, low glucose 5 days
Description: (§10) For the glutamine deprivation experiment, A549 and NCI-H358 cell lines were also seeded and grown up to 5 days in DMEM without glutamine and glucose (Corning Cat. #17-207CV) and complemented with L-glutamine (GlutaMAX CTS, Gibco) to a final concentration of either 6 mM (high glutamine) or 2 mM (low glutamine) and D-Glucose to a final concentration of either 10 mM (high glucose) or 1 mM (low glucose). Finally, breast cancer (MCF7) and pancreatic cancer (PANC1) cell lines were purchased from ATCC and were seeded and grown up to 5 days in RPM11640 complemented with D-Glucose to a final concentration of either 20 mM or 1 mM.
as §6, §9

PANC1 = test: αKG rescue of FoxA2 in low glucose, western blot; assay type: cell-based, human; details: PANC1 pancreas cancer cells, low glucose 5 days
Description: as §10, §6, §9

[7] = empagliflozin 10 mg/kg/d, 6 weeks, vs placebo
[8] = KP tumors week 6, empagliflozin 4 weeks

Structure (SMILES): OC[C@H]1O[C@@H](c2ccc(Cl)c(Cc3ccc(O[C@H]4CCOC4)cc3)c2)[C@H](O)[C@@H](O)[C@@H]1O [empagliflozin]
- differentiation of lung lesions, visual inspection of H&E staining (KP mice carrying LUADs [1]; empagliflozin 10 mg/kg/d oral gavage, week 2 to week 8 post-AdenoCre, vs placebo): more poorly differentiated
- clear cell component of tumors (KP mice carrying LUADs [1]; empagliflozin 10 mg/kg/d, 6 weeks, completely absent from placebo tumors): some of the tumors in the empagliflozin group had a clear cell component
- E-cadherin IHC signal (H score) (KP mice carrying LUADs [1]; [7]): significant down-regulation
- FoxA2 IHC signal (H score) (KP mice carrying LUADs [1]; [7]): significant reduction
- Ttf-1 IHC signal (H score) (KP mice carrying LUADs [1]; [7]): significant reduction
- micropapillary component of murine tumors, pathological quantification (KP mice carrying LUADs [1]; [7]): increasing
- solid component of murine tumors, pathological quantification (KP mice carrying LUADs [1]; [7]): significantly reducing
- HIF1α RNA levels, RT-PCR (KP mice carrying LUADs [2]; KP murine tumors, empagliflozin 4 weeks): significant up-regulation
- surfactant protein C (SpC) expression, qPCR (KP mice carrying LUADs [2]; KP tumors collected week 6 post-induction, empagliflozin 10 mg/kg/d 4 weeks): significant reduction
- FoxA2 expression, qPCR (KP mice carrying LUADs [2]; [8]): significant reduction
- FoxJ1 expression (ciliated cell marker), qPCR (KP mice carrying LUADs [2]; [8]): reduced expression
- HmgA2 expression, qPCR (KP mice carrying LUADs [2]; [8]): increase
- Pdpn expression (type I alveolar cell marker), qPCR (KP mice carrying LUADs [2]; [8]): reduced expression
- Scgb3A2 expression (Clara cell marker), qPCR (KP mice carrying LUADs [2]; [8]): reduced expression
- Ttf1 expression, qPCR (KP mice carrying LUADs [2]; [8]): significant reduction
- tumor burden, ex vivo BLI (KP mice carrying LUADs [3]; KP mice, empagliflozin week 2 to week 5 after transthoracic AdenoCre, vs placebo): significantly reduced
- tumors formed after re-injection of treated tumor cells in syngeneic mice, BLI (KP mice carrying LUADs [3]; same number of sorted epithelial cells by tail vein, BLI at week 13, vs placebo group): formed larger tumors than the placebo group
- tri-methylation on H3K27 (H3K27me3 over total H3), ELISA (KP mice carrying LUADs [4]): significant increase
- tumor burden by bioluminescence imaging, compared with placebo (KP mice carrying LUADs [5]): significantly reduced

Structure (SMILES): O=C(O)CCC(=O)C(=O)O [αKG, alpha-ketoglutarate]
- activation of HIF1α after short-time glucose deprivation, western blot (A549 cells): rescued
- activation of HIF1α after short-time glucose deprivation, western blot (NCI-H358 cells): rescued
- activation of HIFAL in low glucose [6]: completely rescued
- low glucose-induced FoxA2 down-regulation, western blot (MCF7): rescued
- low glucose-induced FoxA2 down-regulation, western blot (PANC1): rescued

Source: patent publication US20250249013A1, “COMBINATION METABOLIC-EPIGENETIC TREATMENT FOR EARLY LUNG CANCER” (THE REGENTS OF THE UNIVERSITY OF CALIFORNIA, priority 2022, published 2025)
